Where two headings read alike, the source gives them in different places.
Experiments:
[1] = system: LPS-induced TNF-α production; test: Inhibition of LPS-induced TNF-α production in rats; format: in vivo; conditions: Rattus norvegicus, read-out: ED50, inhibition of LPS-induced TNF-α production
Protocol: Inhibition of LPS-Induced TNF-α Production Rats
LPS was diluted in PBS (100 μg per rat). Rats (n=6) were pretreated with vehicle or compound (0.03, 0.1, 0.3 and 1.0 mg/kg, PO) 60 minutes prior to the injection of LPS (100 μg per rat/IV, tail vein). Blood was harvested via decapitation 90 minutes following the administration of LPS. Blood was centrifuged at 12,000 rpm for 12 minutes to obtain plasma. Plasma samples were stored at −80 C. TNF-α levels were determined by ELISA for treatment groups that received LPS. Rat TNF-α levels were analyzed using rat TNF-α CytoSet kit from Biosource International. ELISA was completed according to the manufacturer's instructions. The concentration of TNF-α was interpolated from absorbance using the standard curve generated. For each individual sample, the TNF value from the dilution series that fell in the most linear portion of the standard curve was chosen and used for data analysis. The limit of quantitation of the ELISA was 1,000 pg/mL.

[2] = system: TNF-α production by LPS-activated THP1 cells; test: Lipopolysaccharide-activated THP1 cell TNF production assay; format: cell-based; conditions: Homo sapiens, read-out: IC50 in THP-1 cellular TNF production assay
Protocol: Lipopolysaccharide-Activated THP1 Cell TNF Production Assay
THP1 cells were resuspended in fresh THP1 media (RPMI 1640, 10% heat-inactivated FBS, 1×PGS, 1×NEAA, plus 30 μM βME) at a concentration of 1.5×10^6 cells per mL. One hundred microliters of cells per well were plated in a polystyrene 96-well tissue culture plate. 1.5 micrograms per mL of bacterial LPS was prepared in THP1 media and transferred to the first 11 columns of a 96-well polypropylene plate. Column 12 contained only THP1 media for the LO control. Compounds were dissolved in 100% DMSO and serially diluted 3 fold in a polypropylene 96-well microtiter plate (drug plate). Columns 6 and 12 were reserved as controls (HI controls and LO controls respectively) and contained only DMSO. 10 μL of LPS followed by one microliter of inhibitor compound from the drug plate was transferred to the cell plate. The treated cells were induced to synthesize and secrete TNF-α in a 37° C. humidified incubator with 5% CO2 for 3 hours. Fifty microliters of conditioned media was transferred to a 96-well MULTI-ARRAY™ 96-well small spot plate—custom coated with MAB610 containing 100 μL of 2× Read Buffer P supplemented with 0.34 nM AF210NA polyclonal Ab labeled with ruthenium (MSD—Sulfo-TAG™—NHS ester). After an overnight incubation at room temperature with shaking, the reaction was read on the Sector Imager™ 6000. […] The amount of secreted TNF-α in the presence of test compounds compared with that in the presence of DMSO vehicle alone (HI control) was calculated using the formula: % control (POC)=(cpd−average LO)/(average HI−averageLO)*100. Data (consisting of POC and inhibitor concentration in μM) was fitted to a 4-parameter equation (y=A+((B−A)/(1+((x/C)^D))), where A is the minimum y (POC) value, B is the maximum y (POC), C is the x (cpd concentration) at the point of inflection and D is the slope factor) using a Levenburg-Marquardt non-linear regression algorithm.

[3] = target: recombinant human p38α (Homo sapiens, UniProt Q16539); test: Purified and activated recombinant human p38α HTRF assay; format: biochemical; conditions: 1 nM p38α, 50 μM ATP, GST-ATF2 substrate, read-out: p38a IC50
Protocol: Purified and Activated Recombinant Human p38α Assay Kinase Reaction Buffer: […] HTRF Detection Buffer: […] Serial Dilution of Compounds: […] Columns 6 and 12 (HI controls and LO controls respectively) in the drug plate were reserved as controls and contained only DMSO. Kinase Reaction: […] See table below for actual concentrations. In the absence of substrate, the background was measured as LO control. […] Assay Reagent Concentrations: […] HTRF Detection: […] After 60 minutes incubation at room temperature, the assay plate was read in a Discovery Plate Reader. The wells were excited with coherent 320 nm light and the ratio of delayed ([…] post excitation) emissions at […] (native europium fluorescence) and 665 nm (europium fluorescence transferred to allophycocyanin-an index of substrate phosphorylation) was determined (Park et al, 1999). Data Analysis: […] Data (consisting of POC and inhibitor concentration in μM) was fitted to a 4-parameter equation ([…]))), where A is the minimum y (POC) value, B is the maximum y (POC), C is the x (compound concentration) at the point of inflection and D is the slope factor, using a Levenburg-Marquardt non-linear regression algorithm. The inhibition constant (Ki) of the inhibitor was estimated from the IC50 (compound concentration at the point of inflection C) using the Cheng-Prussof equation: […] All results were expressed as the mean±the standard error of the mean. Data acquisition and non-linear regression algorithms were performed using Activity Base v5.2 and XL-fit software v4.1 respectively. All data was archived using Activity Base v5.2 software.

[4] = system: production of IL-1β, IL-6, and TNF-α by PBMC activated with LPS; test: Lipopolysaccharide-activated PBMC cytokine production assay; format: cell-based; conditions: Homo sapiens, read-out: IC50 in PBMC cytokine production assay
Protocol: Lipopolysaccharide-Activated Pbmc Cytokine Production Assay
Test compounds were evaluated in vitro for the ability to inhibit the production of IL-1β, IL-6, and TNF-α by PBMC activated with bacterial lipopolysaccharide (LPS). Fresh leukocytes were obtained from a local blood bank, and peripheral blood mononuclear cells (PBMCs) were isolated by density gradient centrifugation on Ficol-Paque Plus (Pharmacia).
Preparation of Test Compound Stock Solutions
All reagents were prepared in RPMI 1640+10% v/v human AB serum+1× Pens/Strep/Glu (assay medium). Test compounds were dissolved in 100% DMSO and serially diluted in 96-well polypropylene round bottom micro titer plates (drug plate). Serial dilutions were then diluted 1:250 into assay medium to a 4× working concentration. Compound serial dilutions were half-log, 10 point titrations with a final starting concentration of 1 μM.
Treatment of Cells with Test Compounds and Activation with Lipopolysaccharide
LPS was prepared to a 4× concentration in assay medium. 100 μl of PBMC (1×10^6 cells/ml) were plated in a 96-well polystyrene flat bottom micro titer tissue culture plate and incubated with 50 μl of 4× compound serial dilution for 1 hour at 37° C., 5% CO2 in a tissue culture incubator. 50 μl 4×LPS or control was added and the plates were incubated at 37° C., 5% CO2 in a tissue culture incubator for 18 hours. The final DMSO concentration was 0.1%. The total volume was 200 μL. The final LPS concentration was 100 ng/mL. After 18 hours culture supernatants were removed and IL-1β, IL-6, and TNF-α presence in the supernatants was quantified using MSD ECL based technology.
20 μL of culture supernatant were added to MSD plates, and incubated for one hour at room temperature. 20 μL of detection antibody diluted in antibody diluent (1 μg/mL), and 110 μL of 2× Read Buffer P was added, and incubated for one hour at RT. Electrochemiluminescence was measured using the SECTOR HTS Imager (MSD, Gaithersburg, Md.).
Compound IC50 values were calculated as follows: The proportion of cytokine production in the presence of compound compared to the cytokine production in the presence of the DMSO vehicle alone (Hi control) was calculated using the formula: Percent Control (POC)=(compound−average Lo)/(average Hi−average Lo)*100.

[5] = system: collagen-induced arthritis; test: Collagen-induced arthritis (CIA) model in rats; format: in vivo; conditions: Rattus norvegicus, 168 h, read-out: ED50 in rat CIA model
Protocol: Collagen-induced Arthritis (CIA) Model in Rats
Porcine type II collagen (10 mg) was dissolved in 0.1N acetic acid (5 mL) two days prior to use on a rotating plate in the refrigerator. Subsequently, collagen was emulsified 1:1 with Freund's incomplete adjuvant using an emulsification needle and glass syringes yielding a final concentration of 1 mg/mL.
Disease was induced in each animal by intradermal injection of emulsified collagen in IFA at 10 different sites (100 μL per site) over the back. The clinical onset of arthritis varied between days 10 to 12 as indicated by hind paw swelling and ambulatory difficulties. At onset (defined as Day 0), rats were randomized to treatment groups and therapy was initiated with drug or vehicle control as noted in table above. Rats were treated for 7 days and were sacrificed on Day 8.

[6] = system: TNF-α induced IL-8 in 50% human whole blood; test: Inhibition of TNF-α induced IL-8 in 50% human whole blood; format: cell-based; conditions: TNF-α (1 nM) induced IL-8, 50% human whole blood, 16-18 h, read-out: WB TNF/IL8 IC50
Protocol: Inhibition of TNF-α Induced IL-8 in 50% Human Whole Blood
Test compounds were evaluated in vitro for the ability to inhibit the production of secreted IL-8 by whole blood activated with TNF-α. Fresh human whole blood was obtained from healthy, non-medicated volunteers in sodium heparin tubes.
Compound Dilution—Assay Procedure
Test compounds are serially diluted 1:3 in DMSO and then diluted 1:250 into R10 (RPMI 1640, 10% human serum AB, 1× pen/strep/glutamine) to the 4× working concentration to be used in the assay. 100 ul heparinized whole blood is plated into wells of 96 well flat bottom plates. 50 ul of either 4× compound or DMSO control (Final DMSO concentration is 0.1%) are added to the appropriate wells. Plates are incubated for 1 hour at 37 degrees Celsius. 50 ul of 4×TNF-α (4 nM TNF-α, for a final concentration of 1 nM) or control (media alone) is added to the appropriate wells (Total volume=200 ul). Plates are incubated overnight (16-18 hours). 100 ul of supernatant is collected and stored in 96-well round bottom polypropylene plates at −80 degrees Celsius or assayed immediately for IL-8.
Cytokines are measured on antibody (Ab) sandwich ECL based 96-well detection plates. 20 ul of supernatant are added to plate and plate is sealed and shaken at RT for 1 hour. 130 ul of detection Ab cocktail is added and plates are sealed and shaken for 1 hour in the dark at RT. Plates are read on MSD Sector HTS instrument. Data are analyzed and IC50 values generated using Activity Base and X1-fit programs.

[7] = THP-1, THP1 cells, LPS, 3 hours

Sequence of recombinant human p38α (Q16539 whole entry): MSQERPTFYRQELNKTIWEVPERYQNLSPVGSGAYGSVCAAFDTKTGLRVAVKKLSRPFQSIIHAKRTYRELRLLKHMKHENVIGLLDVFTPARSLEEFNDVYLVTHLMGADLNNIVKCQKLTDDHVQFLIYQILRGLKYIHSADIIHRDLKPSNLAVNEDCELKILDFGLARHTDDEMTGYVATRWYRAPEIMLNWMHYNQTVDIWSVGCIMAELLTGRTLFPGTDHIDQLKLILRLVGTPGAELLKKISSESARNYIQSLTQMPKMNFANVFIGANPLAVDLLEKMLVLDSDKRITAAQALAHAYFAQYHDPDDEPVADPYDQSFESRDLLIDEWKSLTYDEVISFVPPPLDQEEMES

SMILES | ED50 [1] | IC50 ([2]; THP-1, 3 h) | IC50 [3] | IC50 ([4]; 18 h) | ED50 [5] | ED50 ([1]; rats, compound PO 60 minutes prior to LPS IV, plasma TNF-α 90 minutes after LPS) | IC50 [2, 7] | IC50 ([4]; LPS 100 ng/mL, 18 hours) | ED50 ([5]; rats, treated for 7 days from onset of arthritis) | IC50 [6]
Cc1ccc(C(=O)NC2CC2)cc1-c1cc2cnnc(-c3ccc(F)cc3F)c2n(C)c1=O [Example 1, N-cyclopropyl-3-(8-(2,4-difluorophenyl)-1-methyl-2-oxo-1,2-dihydropyrido[3,2-d]pyridazin-3-yl)-4-methylbenzamide] | 0.06 mg/kg | ≤ 1000 nM | 2.3 nM | ≤ 1000 nM | 0.03 mg/kg | – | – | – | – | –
Cc1c(F)cc(C(=O)NC2CC2)cc1-c1cc2cnnc(-c3ccc(F)cc3F)c2n(C)c1=O [Example 3, N-cyclopropyl-3-(8-(2,4-difluorophenyl)-1-methyl-2-oxo-1,2-dihydropyrido[3,2-d]pyridazin-3-yl)-5-fluoro-4-methylbenzamide] | 0.04 mg/kg | ≤ 1000 nM | 1.7 nM | ≤ 1000 nM | – | – | – | – | – | –
Cc1c(F)cc(C(=O)NC2CC2)cc1-c1cc2cnnc(-c3ccccc3Cl)c2n(C)c1=O [Example 14, 3-(8-(2-chlorophenyl)-1-methyl-2-oxo-1,2-dihydropyrido[2,3-d]pyridazin-3-yl)-N-cyclopropyl-5-fluoro-4-methylbenzamide] | – | – | 2.4 nM | – | – | 0.02 mg/kg | ≤ 1000 nM | ≤ 1000 nM | 0.03 mg/kg | –
Cc1ccc(C(=O)Nc2nccs2)cc1-c1cc2cnnc(-c3ccc(F)cc3Cl)c2n(C)c1=O [Example 24, 3-(8-(2-chloro-4-fluorophenyl)-1-methyl-2-oxo-1,2-dihydropyrido[2,3-d]pyridazin-3-yl)-4-methyl-N-1,3-thiazol-2-ylbenzamide] | – | – | 1 nM | – | – | – | ≤ 1000 nM | ≤ 1000 nM | – | 9.3 nM

Reference: US8455495B2, “Pyridazino-pyridinone compounds and methods of use” (Amgen Inc., priority 2008, dated 2013)
